# Results taken from ChEMBL document CHEMBL5247606, “Advances of targeting the YAP/TAZ-TEAD complex in the hippo pathway for the treatment of cancers” (Eur J Med Chem, 2022).
# What was measured:
# [1] = molecular target: Transcriptional coactivator YAP1 (Homo sapiens) (UniProt P46937); experiment: Inhibition of YAP (unknown origin) phosporylation relative to control; conditions: concentration not given here
# [2] = molecular target: T1, Serine/threonine-protein kinase LATS1 (Homo sapiens) (UniProt O95835); experiment: Inhibition of LATS1 (unknown origin) phosporylation relative to control; conditions: dose 10.0 µM
# T1 sequence (whole entry): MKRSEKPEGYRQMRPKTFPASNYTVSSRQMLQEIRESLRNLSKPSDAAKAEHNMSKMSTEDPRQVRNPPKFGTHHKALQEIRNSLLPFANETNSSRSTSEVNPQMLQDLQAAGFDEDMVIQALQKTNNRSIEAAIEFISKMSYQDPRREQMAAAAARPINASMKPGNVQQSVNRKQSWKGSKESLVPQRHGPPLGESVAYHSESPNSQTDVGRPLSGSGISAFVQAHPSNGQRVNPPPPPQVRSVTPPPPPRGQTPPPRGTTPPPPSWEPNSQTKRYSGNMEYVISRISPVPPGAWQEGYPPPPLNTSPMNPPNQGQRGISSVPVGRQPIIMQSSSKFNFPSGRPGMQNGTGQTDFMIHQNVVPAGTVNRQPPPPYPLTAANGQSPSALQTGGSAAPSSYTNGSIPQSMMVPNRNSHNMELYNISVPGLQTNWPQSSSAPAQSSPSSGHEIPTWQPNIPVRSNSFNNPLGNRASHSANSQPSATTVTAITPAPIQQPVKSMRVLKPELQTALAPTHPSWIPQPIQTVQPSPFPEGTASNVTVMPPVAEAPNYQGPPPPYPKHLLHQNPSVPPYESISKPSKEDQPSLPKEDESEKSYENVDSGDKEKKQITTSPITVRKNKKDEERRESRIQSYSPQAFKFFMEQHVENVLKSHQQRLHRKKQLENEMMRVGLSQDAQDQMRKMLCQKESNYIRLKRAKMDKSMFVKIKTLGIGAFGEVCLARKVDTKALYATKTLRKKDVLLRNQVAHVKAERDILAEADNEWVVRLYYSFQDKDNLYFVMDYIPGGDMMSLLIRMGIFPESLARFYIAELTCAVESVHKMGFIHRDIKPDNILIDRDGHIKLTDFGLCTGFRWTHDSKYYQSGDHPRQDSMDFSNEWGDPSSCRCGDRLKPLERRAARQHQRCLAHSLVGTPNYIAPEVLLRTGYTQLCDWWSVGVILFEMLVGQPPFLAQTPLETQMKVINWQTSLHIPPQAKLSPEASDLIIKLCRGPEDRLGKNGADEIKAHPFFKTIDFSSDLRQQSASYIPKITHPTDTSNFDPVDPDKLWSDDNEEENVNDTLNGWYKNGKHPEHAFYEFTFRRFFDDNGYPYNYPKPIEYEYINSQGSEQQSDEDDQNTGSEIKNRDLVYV
# Sequence of Transcriptional coactivator YAP1 (Homo sapiens) (P46937 whole entry): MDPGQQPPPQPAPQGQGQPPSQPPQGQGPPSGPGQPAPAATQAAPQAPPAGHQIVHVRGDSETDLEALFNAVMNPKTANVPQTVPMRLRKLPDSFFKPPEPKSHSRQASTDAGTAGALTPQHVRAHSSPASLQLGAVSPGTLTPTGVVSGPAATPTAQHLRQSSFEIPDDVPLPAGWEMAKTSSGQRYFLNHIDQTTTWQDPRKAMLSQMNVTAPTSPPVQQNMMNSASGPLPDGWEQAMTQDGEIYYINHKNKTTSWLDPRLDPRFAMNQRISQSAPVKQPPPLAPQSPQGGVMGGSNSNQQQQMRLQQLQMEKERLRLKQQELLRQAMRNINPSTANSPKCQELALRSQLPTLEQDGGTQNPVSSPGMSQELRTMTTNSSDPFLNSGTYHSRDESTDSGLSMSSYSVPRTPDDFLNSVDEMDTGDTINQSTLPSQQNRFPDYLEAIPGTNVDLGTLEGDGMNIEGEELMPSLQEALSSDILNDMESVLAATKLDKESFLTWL
compound,measurement,setting,value
CCOc1cc2ncc(C#N)c(Nc3ccc(OCc4ccccn4)c(Cl)c3)c2cc1NC(=O)/C=C/CN(C)C,inhibition,[1],< 30%
same,inhibition,[2],< 30%
